Assay results published in patent US20230348852A1, “METHODS AND COMPOSITIONS FOR OCULAR CELL THERAPY” (NOVARTIS AG, priority 2020, published 2023).
Entries after “also recorded” stand apart in the source; their conditions may differ.

Assays:
[1] = system: human lymphoblastoid TK6 cells; experiment: In vitro TK6 micronucleus assay; format: cell-based; settings: for Conclusion TK6 MNT screen result: 30+0 hour -S-9 up to limit of cytotoxicity, 3+27 hours +S-9 up to 1 mM
Method: An in vitro TK6 Micronucleus Assay was performed to evaluate the clastogenic and aneugenic potential of a LATS inhibitor by its effects on the frequency of micronuclei in cultured human lymphoblastoid TK6 cells treated for 30 hours with no recovery in the absence of an Aroclor-induced rat liver metabolizing system (S-9) (30+0 hour -S-9) and for 3 hours in the presence of S-9 with 27 hours of recovery (3+27 hours +S-9).
TK6 cells were cultured in HEPES-buffered RPMI 1640 medium with GlutaMAXTM-1 including 10% (v/v) heat inactivated foetal calf serum, 100 Units/mL/100 µg/mL penicillin / streptomycin. Liver S-9 mix from male rats induced with Aroclor 1254 was added as a 10% S-9 mix to achieve a final concentration of 1% in the test system. […] Standard vehicle used was DMSO.
For valid data, the test item was considered to induce clastogenic and/or aneugenic events if: • A statistically significant increase in the frequency of micronucleated mononucleate (MNMON) cells at one or more concentrations was observed • An incidence of MNMON cells at such a concentration exceeded the normal range in both replicate cultures was observed • A concentration-related increase in the proportion of MNMON cells was observed (positive trend test).
The test item was considered positive in this assay if all of the above criteria were met. The test item was considered negative in this assay if none of the above criteria were met.

[2] = system: Salmonella typhimurium (TA98 and TA100); experiment: Bacterial reverse mutation assay (6-well Ames screen); format: cell-based; settings: TA98 and TA100, absence or presence of rat liver S-9 mix, maximum concentration 500 µg/well
Method: A Bacterial Reverse Mutation Assay (“Ames Test”) was performed to evaluate the mutagenic potential of a LATS inhibitor by its effects on one or more histidine-requiring strains of Salmonella typhimurium (TA98 and TA100.) in the absence and presence of a liver metabolizing system.
The 6-well plate Ames test is a miniaturized screening version of the original test using smaller volumes and test item amounts, see e.g. P.A. Escobar et al. (2013), Mut. Res. 752, 99-118. The highest concentration of 500 µg/well used in this 6-well Ames screen corresponds to about the top concentration of […] in the standard Ames test. Liver S-9 mix from male rats induced with Aroclor 1254 was added as a 5% S-9 mix to the test system. […] Standard vehicle used was DMSO.
The test article was regarded positive in this assay if this criterion is met, otherwise it was regarded as negative.

YAP = experiment: Intracellular YAP distribution by immunohistochemistry in LSCs exposed to LATS inhibitors; format: cell-based, human; settings: 10 micromolar, 24 hours, compared with DMSO control
Method: Cells were cultured under these conditions for 24 hours at 37° C. in 5% CO2.
To measure the effect of the LATS inhibitors on the downstream target YAP, intracellular YAP distribution was analyzed by immunohistochemistry. Cell cultures were fixed with 4% PFA for 20 minutes, permeabilized and blocked in a blocking solution of 0.3% Triton X-100 (Sigma-Aldrich) and 3% donkey serum in PBS for 30 minutes. Cells were then labeled with primary antibody in the blocking solution for 12 hours at 4° C. Primary antibody used was anti-YAP from Santa Cruz Biotechnology. Samples were washed in PBS three times and donkey-raised secondary antibody Alexa Fluor 488 (Molecular Probes) at 1:500 dilution were applied for 30 minutes at room temperature. […] Fluorescence was observed using a Zeiss LSM 880 confocal microscope.

human limbal stem cells [3] = experiment: Human limbal stem cell population expansion and immunohistochemical observation of p63alpha phenotype; format: cell-based; settings: for colony formation and p63alpha expression: 10 micromolar, 6 days after isolation without passaging, DMSO as negative control
Method: Cells were first cultured at 37° C. in 5% CO2 for 6 days after isolation without passaging (FIGS. 2A, 2B and 2C).
To evaluate the ability of the compounds to enable LSC expansion after two passages, LSCs were passaged and cultured for two weeks in the presence of compound example 3 to enable expansion (FIG. 2D). Limbal stem cells (LSCs) were passaged by treating cultures with Accutase for 10 minutes at 37° C., rinsing the cell suspension by centrifugation and plating cells in fresh LSC culture medium supplemented with LATS inhibitor compound example 3.
In order to observe that the expanded cell population expressed p63alpha, this was measured by immunohistochemistry as follows. Cell cultures were fixed with 4% PFA for 20 minutes, permeabilized and blocked in a blocking solution of 0.3% Triton X-100 (Sigma-Aldrich) and 3% donkey serum in PBS for 30 minutes. Cells were then labeled with primary antibody in the blocking solution for 12 hours at 4° C. Primary antibody used was p63alpha from Cell Signalling. Samples were washed in PBS three times and donkey-raised secondary antibody Alexa Fluor 488 (Molecular Probes) at 1:500 dilution were applied for 30 minutes at room temperature. Cells were counter-stained with a human nuclear antigen antibody (Millipore) at a 1:500 dilution in order to label all cells in the culture and confirm their human identity. […] Fluorescence was observed using a Zeiss LSM 880 confocal microscope.

human limbal stem cells [4] = experiment: Human limbal stem cell population expansion and measurement (expansion factor, p63alpha-positive cells); format: cell-based; settings: 10 micromolar in XVIVO15 medium, two passages; for Expansion factor: ratio of expanded population to seeded cells; for Percentage of p63a-positive cells: share of Sytox Orange-positive nuclei expressing p63alpha
Method: Cells were cultured at 37° C. in 5% CO2.
For each compound, two sets of cultures were generated. A first set of cultures was fixed in 4% PFA for 20 minutes at room temperature after cells isolated from the cornea had attached to the cell culture dish (typically 24 h after cell plating). A second set of cultures was fixed in 4% PFA for 20 minutes at room temperature after being cultured for two passages. Cells were passaged when they reached 90-100% confluence.
In order to observe that the expanded cell population expressed p63alpha, this was measured by immunohistochemistry as follows. The fixed cell cultures were permeabilized and blocked in a blocking solution of 0.3% Triton X-100 (Sigma-Aldrich) and 3% donkey serum in PBS for 30 minutes. Cells were then labeled with primary antibody in the blocking solution for 12 hours at 4° C. Primary antibody used was p63alpha from Cell Signalling. Samples were washed in PBS three times and donkey-raised secondary antibody Alexa Fluor 488 (Molecular Probes) at 1:500 dilution were applied for 30 minutes at room temperature. Cell nuclei were then labeled in a solution of 0.5 micromolar of Sytox Orange (ThermoFisher) in PBS for 5 minutes at room temperature.
To evaluate the percentage of p63alpha-positive cells, the number of cells labeled by the anti-p63alpha antibody was counted and the total number of cells was determined by counting the number of nuclei stained by Sytox Orange. The proportion of p63alpha-positive cells was then determined by calculating the percentage of Sytox-orange-positive nuclei that also expressed p63alpha.
To evaluate cell expansion ratios, nuclei were counted using a Zeiss LSM 880 confocal microscope. The expansion factor was then determined by calculating the ratio of the expanded population of cells to population of seeded cells.

phospho-YAP (ser127) = experiment: YAP phosphorylation by Western blot in LSCs exposed to LATS inhibitors; format: cell-based, human; settings: 10 micromolar, 1 hour, DMSO as negative control
Method: The medium was then replaced by fresh limbal epithelium cell culture medium (DMEM F12 supplemented with 10% human serum and 1.3 mM calcium chloride) supplemented with LATS inhibitor compound example no. […] Cells were cultured under these conditions for 1 hour at 37° C. in 5% CO2.
To measure the effect of the LATS inhibitors on the downstream target YAP, the YAP phosphorylation levels were measured by western blot as follows. The cell pellets were obtained by trypsin dissociation and centrifugation and washed with PBS. The pellets were lysed with 30 microlitres of RIPA lysis buffer containing protease inhibitor cocktail (Life Technologies) for 30 minutes, with vortexing every 10 minutes. The cell debris were then pelleted at 4° C. for 15 minutes at 14 k rpm and the protein lysate was collected. Protein concentration was quantified using a micro BCA kit (Pierce). Fifteen micrograms of total protein was loaded in each well of 4-20% TGX gels (BioRad) and Western blotting was performed according to the manufacturer’s instructions. […] Membranes were stained with HRP-conjugated secondary antibodies, rinsed and imaged using a ChemiDoc system (Biorad) according to the manufacturer’s instructions.

[5] = +S-9, 3+27 hours, 337.0 µg/mL (approximately 1 mM)
[6] = +S-9, any concentration up to 337.0 µg/mL
[7] = -S-9, any concentration up to 40.00 µg/mL

Compound | Conclusion TK6 MNT screen result ([1]; listed as dimethyl(3-methyl-3-{[2-(pyridin-4-yl)pyrido[3,4-d]pyrimid in-4-yl]amino}butyl)a) | Conclusion TK6 MNT screen result ([1]; listed as dimethyl(3-methyl-3-{[2-(pyridin-4-yl)pyrido[3,4-d]pyrimidin-4-yl]amino}butyl)am) | cytotoxicity [1, 5] [%] | increases in micronucleated mononucleate (MNMON) cells [1, 6] | cytotoxicity ([1]; -S-9, 30 hours, 40.00 µg/mL) [%] | increases in micronucleated mononucleate (MNMON) cells [1, 7] | AMES screen result [2] | YAP immunostaining in the nucleus of LSCs (YAP) | colony formation and p63alpha expression (human limbal stem cells [3]) | cell population expansion and p63alpha expression after passaging (human limbal stem cells [3]; passaged and cultured for two weeks in the presence of the compound) | Expansion factor (human limbal stem cells [4]) | Percentage of p63a-positive cells (human limbal stem cells [4]) [%] | YAP phosphorylation levels in human LSCs (Western blot) (phospho-YAP (ser127)) | YAP phosphorylation levels in human LSCs (Western blot) (phospho-YAP (ser127); listed as ex. 3) | YAP phosphorylation levels in human LSCs (Western blot) (phospho-YAP (ser127); listed as ex. 4) | Conclusion TK6 MNT screen result [1]
CN(C)CCC(C)(C)Nc1nc(-c2ccncc2)nc2cnccc12 [Example 5, Dimethyl(3-methyl-3-{[2-(pyridin-4-yl)pyrido[3,4-d]pyrimidin-4-yl]amino}butyl)amine] | “negative” | did not induce micronuclei | 39 | No statistically significant (p≤0.05) increases | 58 | No statistically significant (p≤0.05) increases | did not show evidence of a mutagenic potential; also recorded: “negative” | – | – | – | – | – | – | – | – | –
CC(C)(O)CC(C)(C)Nc1nc(-c2ccncc2)nc2cnccc12 [Example 3, 2,4-dimethyl-4-{[2-(pyridin-4-yl)pyrido[3,4-d]pyrimidin-4-yl]amino}pentan-2-ol] | – | – | – | – | – | – | – | stronger in the nucleus | formed colonies and expressed p63alpha | enabled cell population expansion and the formation of confluent cultures expressing p63alpha | 2029 | 92 | reduction in YAP phosphorylation levels | induce YAP dephosphorylation in LSCs within one hour | – | –
Cc1n[nH]cc1-c1nc(NC2(C)CC2)c2ccncc2n1 [Example 4, 2-(3-methyl-1H-pyrazol-4-yl)-N-(1-methylcyclopropyl)pyrido[3,4-d]pyrimidin-4-amine] | – | – | – | – | – | – | – | stronger in the nucleus | formed colonies and expressed p63alpha | – | 1205 | 89 | reduction in YAP phosphorylation levels | – | induce YAP dephosphorylation in LSCs within one hour | –
Cc1n[nH]cc1-c1nc(NC(C)(C)CCN(C)C)c2ccncc2n1 [Example 6, N^1,N^1,3-trimethyl-N^3-(2-(3-methyl-1H-pyrazol-4-yl)pyrido[3,4-d]pyrimidin-4-yl)butane-1,3-diamine] | – | – | 33 | No statistically significant (p≤0.05) increases | 57 | No statistically significant (p≤0.05) increases | did not show evidence of a mutagenic potential; also recorded: “negative” | – | – | – | – | – | – | – | – | did not induce micronuclei; also recorded: “negative”
